From patent EP1862549A2, “Target of RNAIII activating protein (TRAP)” (Balaban, Naomi, priority 1998, dated 2007)

Columns and labels:
[1] = system: TRAP; conditions: wild type early exponential S. aureus cells incubated in PFB with 32P; PBS as control
Experimental: Wild type early exponential S. aureus cells were incubated for 1 hr in phosphate free buffer (PFB) together with ^32P, with RAP (in PBS) or with PBS only as a control. […] Cells were collected, applied to SDS PAGE, and the gel autoradiographed. The autoradiogram was scanned and the density of the bands determined.
Wild type early exponential S. aureus cells were incubated in PFB with ^32P with either PBS alone, RIP, RAP, or a combination of RIP and RAP. […] The cells were collected, applied to SDS PAGE, the gel autoradiographed, and the relative amounts of TRAP phosphorylation and RNAIII transcription levels determined (Balaban et al. Proc. Natl. Acad. Sci. U.S.A. 92:1619-1623 (1995)). […] The relative levels of TRAP phosphorylation (Fig. 14) and RNAIII transcription (Fig. 15) in the presence of PBS alone (control), RIP, RAP, or RIP and RAP were also determined.

[2] = system: S. aureus; conditions: animals treated with RIP; cited from earlier work

Substance: YSPXTNF (SEQ ID NO:3) [RIP]
- TRAP phosphorylation [1]: inhibited
- protection from an S. aureus infection [2]: protected
